Measurements reported in PubChem BioAssay AID1159560 (GlaxoSmithKline (GSK), 2015).
Activity calls are given as the source filed them. How the calls were made is not given here.

Test system: Leishmania donovani growth inhibition
Experiment: antileishmanial activity against L. donovani parasites (AID 1159560);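 further: parasites exposed to compound for 72 h before the viability read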

| SMILES | IC50 |
| --- | --- |
| COc1ccc([N+](=O)[O-])cc1NC(=O)c1cc(Cl)ccc1O | 7.9 µM |
| COc1ccc(C2=NCC(CSc3nnc(-c4ccc5c(c4)OCO5)o3)S2)cc1 (stereo not given) | 1 µM |
| CCCCNc1nccc(-c2c(-c3ccc(F)cc3)nn3c(N4CCOCC4)cccc23)n1 | > 50 µM (inactive) |
| CC(C)Oc1cccc(N2CCC(C(=O)N3CCCN(C(C)C)CC3)CC2)c1 | > 50 µM (inactive) |
| O=C(Nc1ccc(C(F)(F)F)cc1)NC1(C(=O)NCc2ccco2)CCCCC1 | 40 µM |
| CC(C)(C)c1csc(NC(=O)c2ccc([N+](=O)[O-])s2)n1 | 1.6 µM |
| CC(C)Nc1nccc(-c2c(-c3ccc(F)cc3)ncn2C2CCOCC2)n1 | 25 µM |
| CC(C)(C)C(O)(CCc1ccc(Cl)cc1)Cn1cncn1 (stereo not given) | 3.2 µM |
| CC1=NN(C(=O)CCn2cnc([N+](=O)[O-])n2)C(O)(C(F)(F)F)C1 (stereo not given) | > 50 µM (inactive) |
| COc1ccccc1C(=O)Nc1nnc(-c2ccc3c(c2)OCO3)s1 | 1 µM |
| Cc1ccccc1NS(=O)(=O)c1ccc2[nH]cc(C(=O)NC3CCCCC3)c(=O)c2c1 | > 50 µM (inactive) |
| O=C(Nc1ccc(Br)cn1)c1ccc(Cn2cnc([N+](=O)[O-])n2)cc1 | > 50 µM (inactive) |
| CCOC(=O)c1cn[nH]c1S(=O)(=O)N1CCC1c1ccccc1 (stereo not given) | > 50 µM (inactive) |
| COc1cc(OC)cc(C(=O)N[C@@H](CC(C)C)C(=O)NC2(C#N)CC2)c1 | > 50 µM (inactive) |
| O=C(NCCc1ccccn1)C(c1cn[nH]c1)N1CCN(c2ccc(Cl)c(Cl)c2)CC1 (stereo not given) | 2.5 µM |
| CC(C)C[C@H](NC(=O)c1csc(-c2cccs2)n1)C(=O)NC1(C#N)CC1 | 5 µM |
| Oc1c(-c2n[nH]c(Cc3ccc(Cl)cc3)n2)ncc2cccnc12 | 0.25 µM |
| CC(c1ccc2c(c1)CCCC2)N(C)c1ncc2c(N)nc(N)nc2n1 (stereo not given) | 2.5 µM |
| CNc1cncc(C2CCCN2C(=O)Cc2ccc3ccccc3c2)n1 (stereo not given) | > 50 µM (inactive) |
| CCOc1ccc(NC(=O)c2ccc(NC(=O)NC3CCCCC3)cc2)cc1 | > 50 µM (inactive) |
| COc1ccc(-c2cc(C)no2)cc1S(=O)(=O)Nc1ccc(C)c(C)c1 | 7.9 µM |
| CNc1cc(C)nc(C2CN(C(=O)c3n[nH]c4ccccc34)CCO2)c1 (stereo not given) | > 50 µM (inactive) |
| N#Cc1c(Oc2cccc(Cl)c2)cccc1[N+](=O)[O-] | 7.9 µM |
| c1ccc(-c2nc(NC3CCCC3)c3ccccc3n2)nc1 | 4 µM |
| CCOc1ccc(N(C)S(=O)(=O)c2ccc3[nH]cc(C(=O)NC4CCCC4)c(=O)c3c2)cc1 | > 50 µM (inactive) |
| COc1ccc(CNc2nsc3ccccc23)cc1OC | 3.2 µM |
| COc1ccc2nccc([C@H](O)CN3CC[C@H](NC(=O)c4ccc(Br)cc4)[C@@H](O)C3)c2n1 | 3.2 µM |

| SMILES | IC50 |
| --- | --- |
| CC(C)n1c(-c2nonc2N)nc2cccc(OCCN3CCCC3)c21 | > 50 µM (inactive) |
| Cc1cc(C)cc(NS(=O)(=O)c2cc(-c3cc(C)[nH]n3)ccc2C)c1 | 2.5 µM |
| CN(CCOc1ccc(Cl)cc1)Cc1nc(N)nc(N(C)C)n1 | 16 µM |
| N#Cc1ccccc1S(=O)(=O)N1CCN(C(=O)CNC(=O)c2ccc3c(c2)OCO3)CC1 | 0.63 µM |
| CC1(C)CCC(=Cc2ccc(Cl)cc2)CC1(O)Cn1ccnc1 (stereo not given) | 2.5 µM |
| COc1ccc(OC)c(NC(=O)c2ccc([N+](=O)[O-])o2)c1 | 25 µM |
| CC1(Oc2cncc(Cl)c2)CCN(Cc2cc3ccccc3[nH]2)C1 (stereo not given) | > 50 µM (inactive) |
| Cc1cccnc1NC(=O)c1cccc(OCc2c(C)noc2C)c1 | > 50 µM (inactive) |
| CN(Cc1ccc(C(N)=O)cc1)C(c1ccc(F)cc1)c1cccnc1 (stereo not given) | > 50 µM (inactive) |
| CCN(CC)S(=O)(=O)c1ccc(Cn2nc(C(=O)Nc3ccncn3)c3ccccc32)cc1 | > 50 µM (inactive) |
| Nc1nccc(-c2csc(Nc3ccc(Cl)cc3)n2)n1 | 4 µM |
| COc1ccc2ncc(F)c(NC(=O)C3(O)CCC(NCc4ccc5c(c4)OCCO5)CC3)c2n1 (stereo not given) | 40 µM |
| CN(C)c1ccc(N)cc1CN(CC1CCCO1)S(C)(=O)=O (stereo not given) | 4 µM |
| O=C(c1cccc(Nc2ncc(-c3ccc4c(c3)OCO4)cn2)c1)N1CCSC1 | 1.3 µM |
| Cc1ccc(Nc2nc(-c3ccccn3)cc(N3CCCC(O)C3)n2)cc1 (stereo not given) | 2 µM |
| NC(=O)c1ccc(-c2cccc(OCCN3CCN(C4CCCCC4)CC3)c2)cc1 | > 50 µM (inactive) |
| O=c1cc(NCCCNCc2c[nH]c3ccc(Br)cc23)[nH]c2ccccc12 | > 50 µM (inactive) |
| Clc1ccc(C(CC2CCCCO2)Cn2cncn2)c(Cl)c1 (stereo not given) | 25 µM |
| Cc1c(Nc2cc(C3CC3)[nH]n2)ccc(C#N)c1Cl | 20 µM |
| O=C(NCCc1ccccc1Cl)c1cccn1-c1cccnc1 | 6.3 µM |
| Cn1c(CC(=O)NNC(=O)c2ccc3ccccc3n2)nc2ccccc21 | 6.3 µM |
| CN1CCCN(C(=O)c2ccc(N3CCCC3)cc2Cl)CC1 | 40 µM |
| O=c1ccc2ccc(F)c3c2n1C[C@H]3CN1CCC(NCc2cc3ccccc3o2)CC1 | 16 µM |
| COc1ccc(NS(=O)(=O)c2cccc(NC(=O)c3cc(F)cc(F)c3)c2)cc1 | 3.2 µM |
| Cc1ccc2sc(NC(=O)Cn3cnc([N+](=O)[O-])n3)nc2c1 | > 50 µM (inactive) |
| Oc1c(-c2n[nH]c(Cc3ccc(F)cc3)n2)ncc2cccnc12 | 0.13 µM |
| COc1ccc2ncc(=O)n(CCN3CCC(NCc4ccc(-c5cccs5)cc4)CC3)c2n1 | 1.6 µM |

| SMILES | IC50 |
| --- | --- |
| COC(=O)c1ccc(-c2cnc3ccc(NCc4ccccn4)nn23)cc1 | 13 µM |
| COCc1cc(Nc2ccccc2)nc(-c2ccccn2)n1 | 7.9 µM |
| O=C(Nc1nc(-c2ccccn2)cs1)c1ccc(S(=O)(=O)N2CCCCC2)cc1 | 0.63 µM |
| CCCN(Cc1ccc(OC)c(OC)c1)Cc1cc(=O)c2c(C)cc(C)cc2[nH]1 | 20 µM |
| Cc1nc(C(=O)Nc2ccc3c(c2)OCO3)nn1-c1ccc(F)cc1 | 2 µM |
| CCCCn1nnnc1CSc1nc(C)cc(C)c1C#N | 1.3 µM |
| CNc1nc(C)nc(N2CCc3cc(C(=O)NCc4ccc(-c5ccn[nH]5)cc4Cl)ccc32)n1 | 2.5 µM |
| O=c1[nH]c(C=Cc2cccc(OCCOc3ccccc3)c2)nc(O)c1[N+](=O)[O-] | > 50 µM (inactive) |
| CCN(CC)S(=O)(=O)c1ccc(OC)c(NC(=O)c2ccc([N+](=O)[O-])s2)c1 | > 50 µM (inactive) |
| CCc1ccccc1[C@@H](C)NC(=O)c1cnc2c(cnn2CC)c1NC1CCN(C(N)=O)CC1 | > 50 µM (inactive) |
| COc1ccc(-c2cnc(NC(=O)c3cc(-c4ccccn4)n[nH]3)n2C)cc1 | 4 µM |
| Nc1ncnc2c1ncn2[C@@H]1O[C@H](CO)C[C@H]1O | > 50 µM (inactive) |
| CC(C)S(=O)(=O)c1ccc(-c2cnc(N)c3cc(-c4ccnc(N)n4)ccc23)cc1 | 2 µM |
| CCN(CC)c1ccc(S(=O)(=O)N(CC)CC)c2nonc12 | 6.3 µM |
| CN(C)S(=O)(=O)c1cccc(CSc2nnc(-c3ccc4c(c3)OCO4)o2)c1 | 1 µM |
| Cc1ccc(C)c(-n2nnnc2Sc2nc([N+](=O)[O-])nn2C)c1 | > 50 µM (inactive) |
| Cc1ccc(NC(C)C(=O)Nc2ccc(C#N)cc2)cc1S(=O)(=O)N1CCCCC1 (stereo not given) | 0.79 µM |
| NC(=O)c1ccccc1Nc1nc(NC2CCCCC2)nc2[nH]ccc12 | 20 µM |
| Cc1nc(C(=O)Nc2ccc3c(c2)OCO3)nn1-c1ccc(Cl)cc1 | 2.5 µM |
| O=C(NCCc1cccnc1)c1csc(-c2ccccc2)n1 | > 50 µM (inactive) |
| Cc1nn(-c2nc3ccccc3s2)c2c1C(c1ccc(OCC(N)=O)cc1)SCC(=O)N2 (stereo not given) | > 50 µM (inactive) |
| Cc1ccc(S(=O)(=O)Cn2nnnc2C(c2cccnc2)N2CCN(c3ccccc3)CC2)cc1 (stereo not given) | 1 µM |
| O=C(N[C@H](CO)c1ccccc1)c1ccc(-c2c[nH]c3nccc(C(F)(F)F)c23)s1 | 32 µM |
| COc1ccc(CN2C(=O)C(O)(CC(=O)c3ccncc3)c3cc(Br)ccc32)cc1OC (stereo not given) | 40 µM |
| COc1ncc(-c2ccc3ncnc(N4CCOCC4)c3c2)cc1NS(C)(=O)=O | 3.2 µM |
| Cc1ccccc1NS(=O)(=O)c1ccc2[nH]cc(C(=O)NC3CCCC(C)C3C)c(=O)c2c1 (stereo not given) | 25 µM |
| O=C(c1cnn(-c2ccccc2)n1)N1CCCC(n2ccnc2)C1 (stereo not given) | 7.9 µM |

| SMILES | IC50 |
| --- | --- |
| COc1ccc2ncc(Cl)c(CCN3CC[C@H](NCc4cc5c(cn4)OCS5)[C@@H](O)C3)c2n1 | 2 µM |
| Cc1cc(Nc2cc(C3CC3)[nH]n2)nc(N2CCCC2)n1 | 0.79 µM |
| CCC(c1ccc(F)cc1)n1cncc1-c1cnn(C)c1 (stereo not given) | > 50 µM (inactive) |
| O=C(CSc1ccc(F)cc1)N[C@@H](Cc1cnc[nH]1)C(=O)NCCc1ccccc1 | > 50 µM (inactive) |
| COCCn1cnc2cc(NC(=O)C3CCCCC3)cc(C(=O)N3CCc4sccc4C3)c21 | > 50 µM (inactive) |
| CCc1cc(C(=O)Nc2nccn2-c2ccccc2)cs1 | 6.3 µM |
| Fc1ccc(OC2CC(NCc3cccc4cn[nH]c34)C2)cc1C(F)(F)F (stereo not given) | 20 µM |
| NS(=O)(=O)c1ccc(Nc2nccc(-c3cnn4ncccc34)n2)cc1 | 0.79 µM |
| COc1ccc(C(C)(C)C)cc1S(=O)(=O)n1ccnc1 | 40 µM |
| Cc1[nH]n2c(=O)c3c(nc2c1-c1ccc(F)cc1)CCCC3 | 1.3 µM |
| Cc1nn2c(NCCCO)c3c(nc2c1-c1cccs1)CCC3 | 2 µM |
| CNc1cncc(C2CCCN2C(=O)Cc2coc3cc(C)ccc23)n1 (stereo not given) | 3.2 µM |
| C=CCOCC1Cn2nc([N+](=O)[O-])nc2O1 (stereo not given) | > 50 µM (inactive) |
| Nc1nc(-c2ccccn2)nc(N)c1Cc1c(F)cccc1Cl | 2.5 µM |
| Cc1ccnc(NS(=O)(=O)c2ccc(NC(=O)c3ccc([N+](=O)[O-])s3)cc2)n1 | 4 µM |
| CCCCn1c(=O)c2c(N)onc2n(CCCC)c1=O | > 50 µM (inactive) |
| CCCNC(=O)Nc1cccc(-c2nc3ncccc3o2)c1 | 3.2 µM |
| N#Cc1cccc(CNc2ccc(-c3cnn(CC4CC4)c(=O)c3C#N)cc2)c1 | 25 µM |
| CC(C(=O)Nc1ccc(Br)cc1)N1CCN(c2ccc([N+](=O)[O-])cc2)CC1 (stereo not given) | > 50 µM (inactive) |
| CCS(=O)(=O)c1cccc(C(=O)Nc2nc(-c3ccccn3)cs2)c1 | 1.3 µM |
| COc1ccc(S(=O)(=O)Nc2ccccc2OC)cc1NC(=O)CCCc1c[nH]c2ccccc12 | 25 µM |
| CC1CN(Cc2ccc(C#N)cc2)CCN1c1ccc(NC(=O)c2ccccc2F)cc1 (stereo not given) | 40 µM |
| C[C@@H](Oc1cc(-n2cnc3ccc(O[C@H]4CCNC4)cc32)sc1C(N)=O)c1ccccc1Cl | > 50 µM (inactive) |
| CCN(CC)c1ncc(C(=O)c2ccc([N+](=O)[O-])o2)s1 | 5 µM |
